# Data reported in patent publication US5162499A, “Synthetic peptides for the treatment of AIDS” (Heterocyclic Research, Inc., priority 1991, dated 1992).
# Legend:
# [1] = system: Human monocytes; test: Chemotaxis assay (monocyte migration in agarose plates); type: cell-based; design: key: (cells migrating to attractant − cells migrating to buffer)/10
# Text: Briefly, monocyte migration is directly observed in a chemotaxis chamber.
# A comparative study comparing the chemotactic activity of the peptides of the invention with the chemotactic activity of peptide T (C. B. Pert et al., Proc. Natl. Acad. Sci., Vol. 83, pp. 9254-9258, 1986) was undertaken. […] Human monocytes were obtained by the known technique of layering heparinized blood on FICOLL-HYPAQUE differential dentrifugation medium in a centrifuge tube and spinning to separate the red blood cells from plasma and the monolayered monocytes. The monocytes were pipetted off and then washed with physiological saline.
# The agarose plates were also prepared in accordance with conventional methods. Agarose type II (0.4 g), available from Sigma Chemical, and LITEX gelatin (0.3 g) were combined and heated until the gelatin was thoroughly dissolved. RMPI-HANK buffer (4 ml), distilled water (15.2 ml) and saturated NaHCO3 solution (0.8 ml) were then added to the agarose gelatin and mixed to homogeneity. 5 ml aliquots of the resulting solution were poured into plastic petri dishes (FALCON 55 mm) and allowed to gel. After the agarose has sufficiently hardened, wells, 3 mm in diameter were cut in the agarose, such that each dish had six rows of wells radiating from the center of the dish, each row containing three wells spaced apart by a distance of 3 mm. Thus, each plate was used to assay two test samples in triplicate. 8 ul of the test peptide (in 120 mM HEPES buffer) was placed on the outermost well, 8 ul of monocyte cell solution was placed in the center well and 8 ul of RPMI-HANKS buffer was placed in the innermost well. The migration of monocytes was visually observed and the number of migrating cells was determined. A chemotactic index was calculated as the number of cells which migrated toward the attractant, i.e., test peptide or control, less the number of cells that migrated towards the buffer divided by 10. Formyl-Met-Leu-Phe (FMLP) and (D-Ala)Peptide-T were used as positive control and HEPES buffer and Leu-Gly-Gly were used as negative controls.
# [2] = system: binding of HIV to T4 cells; conditions: reported by Pert et al., PNAS 1986; cited from earlier work
# [3] = attractant concentration 10^-9 M
# [4] = attractant concentration 10^-10 M
# [5] = attractant concentration 10^-11 M
Substance,"Chemotactic Index [1, 3]","Chemotactic Index [1, 4]","Chemotactic Index [1, 5]",Blocking of the binding of HIV to T4 cells (in words) [2]
"SER--SER--SER--ASN--TYR--MET (SSSNYM; printed: SER--SER--SER--ASN--TYR--MET) [Example 7, linear hexapeptide]",4.6,5.1,5.3,
Ala-Ser-Thr-Thr-Thr-Asn-Tyr-Thr [peptide T],,,,block the binding of HIV to T4 cells
"ALA--SER--SER--SER--ASN--TYR--MET (ASSSNYM; printed: ALA--SER--SER--SER--ASN--TYR--MET) [Example 6, linear heptapeptide]",4.9,4.7,5.1,
"H-SER-SER-ASN-TYR-MET (SSNYM; printed: SER-SER-ASN-TYR-MET) [Example 8, linear pentapeptide]",5.0,4.8,6.0,
